Measured values from patent EP3925949A1, “AZIDO COMPOUNDS AND METHOD FOR MONITORING ACID CERAMIDASE ACTIVITY IN INTACT CELLS USING THEM” (Consejo Superior de Investigaciones Científicas (CSIC), priority 2020, dated 2021).

What was measured:
[1] = tested on: mitochondria; experiment: Confocal co-localization of probe/CO-1 staining with Mitotracker; type: cell-based; conditions: A375/+Dox, RBM5-177 probe, FB1 100 µM 24 h or SOCLAC 5 µM 1 h, independent treatments
Description: Cells were seeded at 1 × 10^5 cells/mL on glass-bottom plates and allowed to adhere for 24 h. For golgi staining, cells were incubated with 40 µL/well of CellLight Golgi-RFP BacMam 2.0 for 24 h. Medium was replaced with fresh medium containing RBM5-177, RBM5-019, RBM2-37 or RBM2-31 (5 µM final concentration) and cells were incubated for 20 min at 37 °C. After this time, the medium was replaced with fresh medium containing CO-1 (1 µM final concentration), and cells were incubated for 10 min. Then cells were washed 3 times with DMEM for 5 min at 37 °C, 75 nM LysoTracker Red DND-99 or 75 nM Mitotracker in phenol red-free DMEM was added to stain lysosomes or mitochondria, and cells were kept in the incubator for microscope analysis. Staining was viewed with a Zeiss LSM 880 confocal microscope or Leica TCS SP8-Hyvolution. Image analysis was performed using Fiji software.^[7] To measure the Manders's and Pearson's coefficients a threshold including organelles and discarding the background was set. Co-localization coefficients were measured using the JaCoP plugin (S. Bolte et al. J. Microsc. 2006, 224, 213-232) on the different stacks of images (at least n=4) with each stack containing 3-10 cells.

[2] = target: T1, alkaline ceramidases 1 (ACER1) (Homo sapiens, UniProt Q8TDN7); experiment: Hydrolysis of RBM5-177 by microsomes of ACER1 overexpressing cells, UPLC-HRMS; type: biochemical; conditions: microsomes from ACER1 overexpressing cells, RBM5-177 5 µM, 30 min
T1 construct: expressed in transfected cells; host or cells: HeLa T-Rex ACER1-TET-ON, tetracycline-induced; microsomes
T1 sequence (Q8TDN7 1-264): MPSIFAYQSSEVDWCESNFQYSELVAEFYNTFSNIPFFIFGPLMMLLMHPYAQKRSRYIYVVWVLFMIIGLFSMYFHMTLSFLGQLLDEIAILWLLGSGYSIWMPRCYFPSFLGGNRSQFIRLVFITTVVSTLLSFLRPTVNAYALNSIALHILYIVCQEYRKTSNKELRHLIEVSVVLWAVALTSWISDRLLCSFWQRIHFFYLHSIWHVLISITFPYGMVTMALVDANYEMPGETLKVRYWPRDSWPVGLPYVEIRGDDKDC
Description: (§1) Cell lysates obtained from HeLa T-Rex ACER1-TET-ON, HeLa T-Rex ACER2-TET-ON and MEF5 overexpressing ACER3 cells were transferred to ultracentrifuge tubes and were spun at 100000 g for 1 h at 4°C. Pellets were resuspended in a 0.25 M saccharose solution and protein concentration was determined as specified below.
(§2) Cells were seeded at 5 × 10^5 cells/mL into 6 well plates (1 mL/well) and were allowed to adhere for 24 h. Medium was replaced with fresh medium containing RBM5-177, RBM5-019 or RBM2-37 (5 µM final concentration). After 30 min, medium was removed; cells were washed with 400 µL PBS and harvested with 400 µL Trypsin-EDTA and 600 µL of medium. NC recombinant enzyme, lysates from A375-AC overexpressing cells, MEF5 or microsomes from HeLa T-Rex ACER1-TET-ON and HeLa T-Rex […] activity buffer. Cell pellets were resuspended with 100 µL of H2O and mixed with 750 µL of methanol: chloroform, 2:1. Samples were heated at 48°C overnight and next day, 75 µL of 1 M KOH in methanol were added, followed by 2 h incubation at 37°C. Afterwards, the saponification was neutralised with 75 µL of 1 M acetic acid and solvent was removed using a Speed Vac Savant SPD131 DDA (Thermo Scientific). […]

[3] = target: T2, ACER2 (Homo sapiens, UniProt Q5QJU3); experiment: Hydrolysis of RBM5-177 by microsomes of ACER2 overexpressing cells, UPLC-HRMS; type: biochemical; conditions: microsomes from ACER2 overexpressing cells, RBM5-177 5 µM, 30 min
T2 construct: expressed in transfected cells; host or cells: HeLa T-Rex ACER2-TET-ON, tetracycline-induced; microsomes
Description: as §1, §2

[4] = target: T3, ACER3 (Mus musculus, UniProt Q9D099); experiment: Hydrolysis of RBM5-177 by microsomes of ACER3 overexpressing cells, UPLC-HRMS; type: biochemical; conditions: microsomes from ACER3 overexpressing cells, RBM5-177 5 µM, 30 min
T3 construct: endogenous in cells; host or cells: MEF5 cells (NC-deficient)
T3 sequence (Q9D099 1-267): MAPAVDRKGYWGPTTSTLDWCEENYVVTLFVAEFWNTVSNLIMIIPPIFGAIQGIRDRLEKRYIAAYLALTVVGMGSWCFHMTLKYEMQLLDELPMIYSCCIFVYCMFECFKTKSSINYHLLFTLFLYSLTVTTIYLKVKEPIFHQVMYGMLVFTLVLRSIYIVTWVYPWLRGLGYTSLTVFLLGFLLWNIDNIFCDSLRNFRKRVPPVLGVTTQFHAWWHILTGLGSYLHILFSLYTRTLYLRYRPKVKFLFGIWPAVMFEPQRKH
Description: as §1, §2

[5] = target: T4, human recombinant neutral ceramidase (NC) (Homo sapiens, UniProt Q9NR71); experiment: Hydrolysis of RBM5-177 by recombinant NC, UPLC-HRMS; type: biochemical; conditions: RBM5-177 5 µM, 30 min
T4 construct: purchased R&D Systems
Description: as §2, with “Scientific). Sphingolipid extracts, fortified with internal standards (N-dodecanoylsphingosine, N-dodecanoylglucosylsphingosine, N-dodecanoylsphingosylphosphorylcoline and C17-sphinganine 0.2 nmol each) were solubilised in 150 µL of methanol. Samples were then centrifuged at 9,300 g for 3 min and 130 µL of the supernatant were injected to a Waters Aquity UPLC system connected to a Waters LCT Premier Orthogonal Accelerated Time of Flight Mass Spectrometer (Waters,Milford, MA, USA) operated in positive electrospray ionisation mode.” for “Scientific).”

T4 sequence (Q9NR71 whole entry): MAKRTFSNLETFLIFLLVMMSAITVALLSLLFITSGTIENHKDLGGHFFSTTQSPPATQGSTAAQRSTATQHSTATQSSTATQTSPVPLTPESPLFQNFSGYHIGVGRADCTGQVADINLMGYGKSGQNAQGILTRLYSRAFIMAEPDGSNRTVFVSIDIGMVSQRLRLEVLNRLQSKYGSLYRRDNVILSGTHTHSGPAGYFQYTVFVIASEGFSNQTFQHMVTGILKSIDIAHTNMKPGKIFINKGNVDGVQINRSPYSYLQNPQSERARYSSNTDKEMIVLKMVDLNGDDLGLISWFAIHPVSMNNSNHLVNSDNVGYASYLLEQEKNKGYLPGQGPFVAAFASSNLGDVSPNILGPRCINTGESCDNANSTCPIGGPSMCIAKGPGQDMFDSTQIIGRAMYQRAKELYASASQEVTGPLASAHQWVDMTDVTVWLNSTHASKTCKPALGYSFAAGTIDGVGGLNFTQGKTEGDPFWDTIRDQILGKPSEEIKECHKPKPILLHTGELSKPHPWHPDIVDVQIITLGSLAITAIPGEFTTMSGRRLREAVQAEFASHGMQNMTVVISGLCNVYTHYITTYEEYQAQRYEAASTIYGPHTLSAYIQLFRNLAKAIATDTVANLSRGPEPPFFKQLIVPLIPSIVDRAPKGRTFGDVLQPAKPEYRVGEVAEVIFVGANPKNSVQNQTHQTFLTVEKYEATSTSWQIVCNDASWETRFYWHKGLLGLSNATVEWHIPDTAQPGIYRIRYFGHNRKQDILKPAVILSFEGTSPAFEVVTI

## CCCCCCCCCCCCC/C=C/[C@@H](O)[C@H](CO)NC(=O)CCl [SOCLAC]
[1]
  effect on mitochondria labelling: mitochondria labelling was precluded

## CCCCCCCC(=O)N[C@@H](C)[C@H](O)CCCCCCCCCCCCN=[N+]=[N-] [RBM5-177, N-((2S,3R)-15-azido-3-hydroxypentadecan-2-yl)octanamide]
[2]
  RBM5-19 formation (hydrolysis as substrate): transformed into the free amine only by AC
[3]
  RBM5-19 formation (hydrolysis as substrate): transformed into the free amine only by AC
[4]
  RBM5-19 formation (hydrolysis as substrate): transformed into the free amine only by AC
[5]
  RBM5-19 formation (hydrolysis as substrate): transformed into the free amine only by AC
